A word on the IC50: it is the point on the concentration scale where inhibition reaches its midpoint.

The results in this text go back to paper PMC6445713 (Molecular cancer research : MCR, 2018).

Experiment [1] has as its target T1, Gαq-Q209L (GαqΔ34-Q209L) (Mus musculus, UniProt P21279, Q209L).
T1 sequence (P21279 35-359 Q209L): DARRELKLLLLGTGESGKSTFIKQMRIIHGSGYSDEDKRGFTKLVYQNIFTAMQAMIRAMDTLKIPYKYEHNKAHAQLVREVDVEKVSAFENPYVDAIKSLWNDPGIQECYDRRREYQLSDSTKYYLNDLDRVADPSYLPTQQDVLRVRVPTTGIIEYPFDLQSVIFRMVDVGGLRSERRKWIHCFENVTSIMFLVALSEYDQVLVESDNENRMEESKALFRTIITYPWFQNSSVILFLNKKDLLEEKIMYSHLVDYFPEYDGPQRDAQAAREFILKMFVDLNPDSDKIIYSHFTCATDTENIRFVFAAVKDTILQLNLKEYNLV
Put plainly: […]GTPγS radioligand filter binding.

Experiment [2] deals with T2, Gαq (Rattus norvegicus, UniProt P82471).
T2 sequence (P82471 1-359): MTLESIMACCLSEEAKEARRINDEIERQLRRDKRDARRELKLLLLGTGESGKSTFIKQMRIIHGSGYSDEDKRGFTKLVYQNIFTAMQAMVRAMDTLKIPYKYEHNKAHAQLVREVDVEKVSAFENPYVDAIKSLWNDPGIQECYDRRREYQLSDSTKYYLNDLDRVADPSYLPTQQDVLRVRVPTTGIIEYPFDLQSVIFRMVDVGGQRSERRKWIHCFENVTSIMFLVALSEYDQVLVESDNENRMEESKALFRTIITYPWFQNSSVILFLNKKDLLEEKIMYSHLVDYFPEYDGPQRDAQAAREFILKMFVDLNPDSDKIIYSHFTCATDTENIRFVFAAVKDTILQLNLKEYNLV
Put plainly: […]GTPγS radioligand filter binding.

Experiment [3] deals with T1, Gαq-Q209L (GαqΔ34-Q209L). Put plainly: […]GTPγS filter-binding assay with purified protein preincubated with FR. It counts as biochemical.
Experiment [4] addresses Gαq (Rattus norvegicus, UniProt P82471). The description is as above. Type of experiment: biochemical.

*1 amine or outer side, *2 acyl side, *3 side chain or, on linkers, in order; H or OH if unused. Where a SMILES comes first, the peptide text is derived from it. Bridges are numbered along the chain shown (N, C = ends). [ ]: non-standard residue; d: D form. The star is where a group is joined. Leu(3R-OH,Nα-propionyl) = CCC(=O)N[C@H](C(=O)*)[C@H](O)C(C)C; X1 = CC(C)[C@@H](O[*:3])[C@H](N[*:1])C(=O)[*:2]; NMeT = CN[C@H](C(=O)O)[C@@H](C)O; dPhLac = O=C(O)[C@H](O)Cc1ccccc1; NMeA = CN[C@@H](C)C(=O)O; NMeDha = C=C(NC)C(=O)O

`Nc1nc2c(ncn2[C@@H]2O[C@H](COP(=O)(O)OP(=O)(O)OP(O)(O)=S)[C@@H](O)[C@H]2O)c(=O)[nH]1` [GTPγS]: the “[35S]GTPγS radioligand filter binding” value on Gαq-Q209L (GαqΔ34-Q209L) [1] is “GTPγS binding of purified Gαq and Gαq-Q209L was measured using a filter-binding method”; at Gαq [2], “GTPγS binding of purified Gαq and Gαq-Q209L was measured using a filter-binding method”.

For `C=C1C(=O)N[C@@H](C)C(=O)N(C)[C@@H](C)C(=O)N[C@@H]([C@H](OC(=O)[C@@H](NC(=O)CC)[C@H](O)C(C)C)C(C)C)C(=O)N(C)[C@@H]([C@@H](C)OC)C(=O)O[C@H](C(C)C)[C@H](NC(C)=O)C(=O)O[C@H](Cc2ccccc2)C(=O)N1C` [FR, FR900359] (Ac-[X1][dPhLac][NMeDha]A[NMeA][X1](Leu(3R-OH,Nα-propionyl))[NMeT](Me); ester 1-C), the IC50 on Gαq-Q209L (GαqΔ34-Q209L) [3] and at Gαq [4] was around 75 nM each time.
